Test results from PMC2813863, “In Vivo Evaluation of α7 Nicotinic Acetylcholine Receptor Agonists [^11C]A-582941 and [^11C]A-844606 in Mice and Conscious Monkeys” (PLoS ONE, 2010).
Several values for one entry are separate records, joined by “and”; a condition that tells them apart may be missing. Equal entries are not always repeated.

Key:
[1] = target: α7 nAChRs (Mus musculus, UniProt P49582); settings: in vivo
Procedure: In the other group of mice, a blocking experiment to determine the α7 nAChRs-specific regional brain uptake of the tracers was carried out. Each tracer (2 MBq/0.055–0.096 nmol) was co-injected with each of the following blockers into mice, and 15 ([^11C]A-582941) or 30 ([^11C]A-844606) min later the mice were killed (n = 5) and the tissue uptake of ^11C was expressed as the %ID/g. […] Each blocker was dissolved in 1N HCl to 40 mg/ml and diluted up to 0.4 mg/ml with saline. The co-injected dose was 1 mg/kg. In the control mice the same amount of 0.01 N HCl in saline was co-injected.

[2] = system: α4β2; settings: human receptor; cited from earlier work
[3] = type: in vivo, mice; settings: mouse, in vivo, iv
Procedure: Each tracer was intravenously injected into mice, and then the animals were killed by cervical dislocation at 1, 5, 15, 30 and 60 min after injection (n = 4). The body weight of the mice was 34.7±1.2 g. The injected doses of tracers were 2 MBq/0.049–0.051 nmol. Blood was collected by heart puncture and tissues were harvested. The carbon-11 in the samples was counted with an auto-gamma-counter (LKB Wallac Compu-gamma 1282CS, Turku, Finland) and the tissues were weighed. The tissue uptake of carbon-11 was expressed as the %ID/g.

[4] = target: α7 nAChRs (Macaca mulatta, UniProt Q866A2); settings: rhesus monkey, in vivo
α7 nAChRs (Macaca mulatta, UniProt Q866A2), sequence (Q866A2 23-502): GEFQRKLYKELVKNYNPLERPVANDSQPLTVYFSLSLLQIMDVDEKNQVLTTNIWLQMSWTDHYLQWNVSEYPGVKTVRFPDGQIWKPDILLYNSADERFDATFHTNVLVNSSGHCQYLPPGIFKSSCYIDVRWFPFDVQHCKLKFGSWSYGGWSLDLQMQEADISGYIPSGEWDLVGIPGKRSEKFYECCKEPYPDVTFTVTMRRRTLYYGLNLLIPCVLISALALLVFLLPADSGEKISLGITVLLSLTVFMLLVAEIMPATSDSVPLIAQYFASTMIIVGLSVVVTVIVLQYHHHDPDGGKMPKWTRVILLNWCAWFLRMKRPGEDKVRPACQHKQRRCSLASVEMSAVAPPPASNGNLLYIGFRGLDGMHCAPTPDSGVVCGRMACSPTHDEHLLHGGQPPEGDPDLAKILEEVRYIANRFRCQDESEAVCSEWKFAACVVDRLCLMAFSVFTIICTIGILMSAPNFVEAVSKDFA
Description: Four young-adult male rhesus monkeys (Macaca mulatta) weighing from 4 to 6 kg were used for PET measurements. The monkeys were trained for the protocol as described previously. The magnetic resonance images (MRI) of all monkeys were obtained with a Toshiba MRT-50A/II (0.5T) under anesthesia with pentobarbital. The stereotactic coordinates of PET and MRI were adjusted based on the orbitomeatal (OM) line with monkeys secured in a specially designed head holder. At least 1 month before the PET study, an acrylic plate, with which the monkey was fixed to the monkey chair, was attached to the head under pentobarbital anesthesia as described previously.
PET data were collected on a high-resolution PET scanner (SHR-7700; Hamamatsu Photonics K.K., Hamamatsu, Japan). The camera consists of 16 detector rings and acquires 20 slices at a center-to-center interval of 3.6 mm with a transaxial resolution of 2.6 mm full width at half maximum. After an overnight fast, the monkey was fixed to the monkey chair with stereotactic coordinates aligned parallel to the OM line. A cannula was implanted in the posterior tibial vein, and [^11C]A-582941 or [^11C]A-844606 (1152–1336 MBq/26.8–63.1 nmol) was injected into the monkey through the venous cannula. PET images were acquired over 91 min (10 sec ×6 frames, 30 sec ×6 frames, 1 min ×12 frames, and 3 min ×25 frames). PET scans were reconstructed using a filtered backprojection method in a 100×100 matrix, with a voxel size of 1.2 mm ×1.2 mm ×3.6 mm. Summed image of late phase (from 70 to 91 min post-injection) was calculated as a static SUV (activity/ml tissue)/(injected activity/g body weight) image. Each MRI was coregistered to an early (from 0 to 20 min) summed image using normalized mutual information, and ROIs were placed on the summed image with reference to the coregistered MRI. Three monkeys underwent [^11C]A-582941 scan morning, and then two of the three monkeys underwent [^11C]A-844606 afternoon (baseline). Within 6 months the last one of the three monkeys underwent two [^11C]A-844606 scans in the baseline (morning) and blocking (afternoon) conditions 30 min after injection of SSR180711 (5.0 mg/kg, i.v.), and the fourth monkey underwent two [^11C]A-582941 scans in the baseline and blocking conditions in the same way.
For the semi-quantitative analysis of PET data, arterial samples were obtained every 8 sec from injection to 64 sec, and then again at 1.5, 2.5, 4, 6, 10, 20, 30, 45, 60, and 90 min after each tracer injection. Blood samples were centrifuged to separate the plasma, weighed, and subjected to radioactivity measurement. For metabolite analysis, methanol was added to some plasma samples, the resulting solutions were centrifuged, and the supernatants were developed with TLC plates (AL SIL G/UV; Whatman, Kent, UK) using a mobile phase of dichloromethane/diethyl ether/ethanol/triethylamine (20/20/2/2, v/v/v/v). At each sampling time point, the ratio of radioactivity in the unmetabolized fraction to that in the total plasma (metabolite plus unmetabolite) was determined using a phosphoimaging plate (BAS-1500 MAC; Fuji Film Co., Tokyo, Japan). The pTACs corrected for metabolite were obtained. The tTACs in each region of interest (ROI) in the brain were calculated as the %ID/ml or as a standardized uptake value (SUV), (activity/ml tissue)/(injected activity/g body weight). Using the tTACs and the metabolite-corrected pTAC, the V T for each tracer was evaluated by Logan graphical analysis.

[5] = target: α7 nAChRs; settings: read-out: KD for α-bungarotoxin; cited from earlier work

α7 nAChRs (Mus musculus, UniProt P49582), sequence (P49582 23-502): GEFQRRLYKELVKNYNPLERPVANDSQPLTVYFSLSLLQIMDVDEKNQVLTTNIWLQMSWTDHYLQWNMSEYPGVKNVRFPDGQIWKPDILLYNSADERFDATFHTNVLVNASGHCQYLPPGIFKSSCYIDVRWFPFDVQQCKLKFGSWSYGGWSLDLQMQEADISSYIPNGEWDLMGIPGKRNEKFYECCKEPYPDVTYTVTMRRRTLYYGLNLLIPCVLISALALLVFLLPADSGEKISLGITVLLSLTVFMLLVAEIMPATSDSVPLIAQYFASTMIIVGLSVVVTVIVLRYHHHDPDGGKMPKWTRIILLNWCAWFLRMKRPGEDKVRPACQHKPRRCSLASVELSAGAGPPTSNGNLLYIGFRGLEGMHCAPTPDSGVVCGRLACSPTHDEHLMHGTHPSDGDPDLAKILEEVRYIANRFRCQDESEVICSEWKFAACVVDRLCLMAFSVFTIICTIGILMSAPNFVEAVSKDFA

Molecule: O=C(Oc1ccc(Br)cc1)N1CCN2CCC1CC2 [SSR180711]
- % Injected dose/g tissue, Cerebellum [1]: 3.32±0.25 % Injected dose/g tissue and 5.10±0.69 % Injected dose/g tissue
- % Injected dose/g tissue, Cerebral cortex [1]: 5.02±0.46 % Injected dose/g tissue and 8.43±1.07 % Injected dose/g tissue
- % Injected dose/g tissue, Hippocampus [1]: 4.63±0.51 % Injected dose/g tissue and 6.26±0.64 % Injected dose/g tissue
- % Injected dose/g tissue, Hypothalamus [1]: 3.49±0.36 % Injected dose/g tissue and 4.74±0.70 % Injected dose/g tissue
- % Injected dose/g tissue, Medulla oblongata [1]: 3.15±0.14 % Injected dose/g tissue and 5.35±0.33 % Injected dose/g tissue
- % Injected dose/g tissue, Midbrain [1]: 3.91±0.45 % Injected dose/g tissue and 6.69±0.79 % Injected dose/g tissue
- % Injected dose/g tissue, Striatum [1]: 4.19±1.04 % Injected dose/g tissue and 7.32±1.84 % Injected dose/g tissue
- % Injected dose/g tissue, Whole brain [1]: 4.21±0.39 % Injected dose/g tissue and 6.82±0.64 % Injected dose/g tissue
- IC50 [2]: > 50000 nM

Molecule: [11CH3]N1CC2CN(c3ccc4oc5ccccc5c(=O)c4c3)CC2C1 (stereo not shown) [[^11C]A-844606, 2-(5-[^11C]Methyl-hexahydro-pyrrolo[3,4-c]pyrrol-2-yl)-xanthene-9-one]
- time of peak radioactivity in the brain [3]: 30 min
- % Injected dose/g tissue, Blood [1]: 0.57±0.11 % Injected dose/g tissue
- % Injected dose/g tissue, Cerebellum [1]: 4.54±0.63 % Injected dose/g tissue
- % Injected dose/g tissue, Cerebral cortex [1]: 7.63±0.98 % Injected dose/g tissue
- % Injected dose/g tissue, Hippocampus [1]: 4.46±0.90 % Injected dose/g tissue
- % Injected dose/g tissue, Hypothalamus [1]: 4.21±1.55 % Injected dose/g tissue
- % Injected dose/g tissue, Medulla oblongata [1]: 5.25±0.95 % Injected dose/g tissue
- % Injected dose/g tissue, Midbrain [1]: 5.43±0.75 % Injected dose/g tissue
- % Injected dose/g tissue, Striatum [1]: 5.01±2.00 % Injected dose/g tissue
- % Injected dose/g tissue, Whole brain [1]: 5.83±0.56 % Injected dose/g tissue
- V T Baseline, Cerebellum ([4]; male): 95.9 mL/g
- V T Baseline, Frontal cortex ([4]; male): 132.2 mL/g
- V T Baseline, Hippocampus ([4]; male): 123.1 mL/g
- V T Baseline, Thalamus ([4]; male): 141.5 mL/g
- V T SSR180711, Cerebellum ([4]; male): 52.8 mL/g
- V T SSR180711, Frontal cortex ([4]; male): 65.3 mL/g
- V T SSR180711, Hippocampus ([4]; male): 57.5 mL/g
- V T SSR180711, Thalamus ([4]; male): 69.3 mL/g
- V T, cerebellum (mean ± SD) ([4]; male): 95.2±32.8
- V T, cerebellum (range) ([4]; male): 62.1–127.7
- V T, frontal cortex (mean ± SD) ([4]; male): 130.9±40.4
- V T, frontal cortex (range) ([4]; male): 89.8–170.6
- V T, hippocampus (mean ± SD) ([4]; male): 118.5±33.6
- V T, hippocampus (range) ([4]; male): 82.9–149.6
- V T, thalamus (mean ± SD) ([4]; male): 138.6±42.3
- V T, thalamus (range) ([4]; male): 95.0–179.4
- time at which brain radioactivity reached a plateau ([4]; male): 40 to 60 min
- time at which radioactivity in the cerebellum reached a plateau ([4]; male): 40 min
- % decrease of V T, Cerebellum [4]: 45.0%
- % decrease of V T, Frontal cortex [4]: 50.6%
- % decrease of V T, Hippocampus [4]: 53.3%
- % decrease of V T, Thalamus [4]: 51.0%
- decrease of V T by pretreatment with SSR180711 [4]: ~50%

Molecule: α-bungarotoxin
- Kd [5]: 1.67 nM
